Test results: patent US20090138208A1, “IMMUNOGLOBULIN G BINDING POCKET” (GE HEALTHCARE BIO-SCIENCES AB, priority 2002, published 2009)

What was measured:
[1] = tested on: F(ab′)2 fragment of a different specificity (kappa); assay: STD NMR control with F(ab′)2 fragment of a different specificity; assay type: binding; conditions: 1 μM protein; different variable part from Example 2
Description: The present example was performed with a F(ab′)2 fragment of a different specificity, i.e. a different variable part, from the one used in Example 2 above in order to verify that binding of one the selected compounds still occurred.
The testing was performed as described above in Example 2, but this time using 1 μM protein and using compound AB—0000860 as defined above in table 1. The results were positive, which implies that there is an interaction between AB—0000860 and at least two kappa Fab fragments of different specificities.

human Fab of κ-type = human Fab of κ-type (Homo sapiens, UniProt P01834+P01857); assay: STD NMR screening (1D saturation transfer difference) for binding to antibody; set-up: key: 0 no; 1 weak; 2 strong signal; conditions: 0.5 mM ligand
Description: All NMR experiments were performed at 298 K on a Bruker Avance 500 MHz spectrometer. The 1D saturation transfer difference method (STD NMR) was used as screening assay (Mayer M. and Meyer B. 1999. Characterization of Ligand Binding by Saturation Transfer Difference NMR Spectroscopy. Angew. Chem., Int. Ed. 38: 1784-1788) using several antibody concentrations in order to differentiate between compounds with different binding strength (Peng J. W., Lepre C. A., Fejzo J., Abdul-Manan N. and Moore J. M. 2001. Nuclear Magnetic Resonance-Based Approaches for Lead Generation in Drug Discovery. Methods in Enzymology. 338: 202-230). The antibody used was a human Fab of κ-type. In all cases ligands were tested one-by-one. On-resonance irradiation was set at 0 ppm and off-resonance irradiation was set at −40 ppm. Irradiation time in each scan was 2 s and 16 K data points were collected with 1024 scans in total. Compounds for testing were dissolved in DMSOd6 to a concentration of 50 mM and 5 μL of the concentrated ligand solution was added to 495 μL buffer solution. The samples thus consisted of 0.5 mM ligand, 20 mM phosphate buffer, 100 mM NaCl and […] in D2O at pD 7.5, uncorrected reading on pH-meter.
Compounds were initially tested for binding with 0.5 μM antibody. Interesting ligands were further tested with protein concentrations of 100 or 20 nM. A one-dimensional ^1H-spectrum was acquired first and subsequently a saturation transfer difference (STD) spectrum was acquired. Each analysis took 60 minutes on the spectrometer. […] The analysis was setup for automation so that several samples could be analysed over night (usually 10-15 samples/night).
As many as 46 of the virtual screening hits were tested with NMR according to the procedure described above. The results from NMR screening together with additional compound data are compiled in Table 1 below. In total 24 compounds gave a positive result in the first round with the highest antibody concentration (500 nM). These 24 compounds were subjected to a second round with an antibody concentration of 100 nM. The 4 compounds showing the strongest signal in the second round were tested for binding in a third round with 20 nM antibody. Three of the compounds in the third round gave a positive result and where thus designated as the strongest binders to the antibody out of the 46 tested compounds.

[2] = tested on: Fab fragment of lambda-type; assay: STD NMR control with Fab fragment of lambda-type; assay type: binding; conditions: tested as in Example 2 with lambda-type Fab
Description: Apart from the different Fab fragment, the testing was performed as described above in Example 2.

human Fab of κ-type, sequence (P01857 with tags, fused parts or gaps, other chains not shown): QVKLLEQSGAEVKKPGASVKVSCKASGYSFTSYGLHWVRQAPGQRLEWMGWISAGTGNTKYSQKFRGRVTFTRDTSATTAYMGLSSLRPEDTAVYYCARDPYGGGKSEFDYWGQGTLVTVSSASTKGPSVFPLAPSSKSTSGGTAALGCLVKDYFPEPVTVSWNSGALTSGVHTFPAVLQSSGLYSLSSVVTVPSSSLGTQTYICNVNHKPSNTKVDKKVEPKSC

**Q.** Which “binding to F(ab′)2 fragment (STD NMR result)” value [1] does the source give for `O=C1CN(c2ccccc2)C(=O)N1c1ccccc1` [AB_0000860, 1,3-diphenylimidazolidine-2,4-dione] here?
**A.** The value was “positive”.

**Q.** What about the “NMR signal conc 3” value (human Fab of κ-type; 20 nM antibody) of the same molecule?
**A.** Its value is 1.

**Q.** And the “NMR signal conc 2” value (human Fab of κ-type; 100 nM antibody)?
**A.** The value was 2.

**Q.** What about the “NMR signal conc 1” value (human Fab of κ-type; 500 nM antibody, 298 K) of the same molecule?
**A.** The value was 2.

**Q.** What about the “binding to lambda-type Fab (STD NMR result)” value [2] of the same molecule?
**A.** The value was “negative”.
